{
  "source": "paper PMC9697930",
  "about": "(International Journal of Molecular Sciences, 2022)",
  "key": {"[1]": {"experiment": "MTT proliferation / drug combination assay", "type": "cell-based, Canine", "conditions": "dog, MDCKII-ABCG2 cells; MDCKII-ABCG2; comparative MTT, 48 h; read-out: antiproliferative IC50", "description": "(§1) The viability MTT assay was employed in several experimental sets, including induction studies, comparative viability assays, and drug combinations. First, 1.3 × 10^4 (MDCKII sublines), 1.2 × 10^4 (A431 sublines), 1.5 × 10^4 (MCF-7), and 1.0 × 10^4 (primary NSCLC explants) cells were seeded in 96-well plates. After seeding, cells were left to refresh in incubator for 24 h. Secondly, the medium was removed, and the serial dilutions of the drugs or drug combinations were added to the cells. Next to these variants, a medium with 40% DMSO and vehicle-containing media were tested as nonviable and unaffected viability controls, respectively. After an additional 48 h of incubation, the cells were washed with 1 × PBS and then treated with 1 mg/mL MTT solution in Opti-MEM. Subsequently, cells were incubated for 60 min under standard conditions. After MTT treatment, generated formazan crystals were solubilized with DMSO for 10 min. Wavelengths of 570 nm (formazan) and 690 nm (background) were used for absorbance measurements using a microplate reader Infinite 200 Pro NanoQuant (Tecan, Männedorf, Switzerland).\n(§2) In vitro cell lines (MDCKII and A431) and primary NSCLC explants were seeded (see densities above) in 96-well plates and incubated for 24 h. […] Combined cells were incubated with the tested compounds for 48 h, and subsequently, MTT assay was performed to assess cell viability as described above. Besides IC50-shift analysis, CompuSyn 3.0.1 software (ComboSyn Inc., Paramus, NJ, USA) was used for the additional analysis of obtained data. This software works with the algorithms of the combination index (CI) method of Chou–Talalay, which is frequently used for the accurate quantification of drug combinations’ outcomes. According to the CI method principle, the combination effects were separated into three categories, including synergistic (CI < 0.9), additive (CI between 0.9–1.1), or antagonistic (CI > 1.1) ones."}, "[2]": {"test_system": "MDCKII-ABCC1", "experiment": "MTT proliferation / drug combination assay", "type": "cell-based, Canine", "conditions": "Canis lupus familiaris, comparative MTT, 48 h, read-out: antiproliferative IC50", "description": "as §1, §2"}, "[3]": {"test_system": "MDCKII-parent", "experiment": "MTT proliferation / drug combination assay", "type": "cell-based, Canine", "conditions": "Canis lupus familiaris; MDCKII-par; comparative MTT, 48 h; read-out: antiproliferative IC50", "description": "as §1, §2"}, "[4]": {"test_system": "ABCB1 mRNA", "experiment": "Gene induction study (qRT-PCR) in MCF-7 cells", "type": "cell-based, Human", "conditions": "0.5 µM, 24 and 48 h", "description": "(§3) Gene expression analyses based on quantitative real-time reverse transcription PCR (qRT-PCR) were performed as described previously. MCF-7 cell line (3.8×10^5 cells/well) was seeded in 12-well plates 24 h before induction experiments. […] After 24 and 48 h intervals, samples were collected by using TRI Reagent. Subsequently, total RNA was isolated from the cells using the chloroform/isopropanol method. Reverse transcription of 1 μg RNA to cDNA was conducted with ProtoScript II Reverse Transcriptase using T100 Thermal Cycler (Bio-Rad Laboratories, Hercules, CA, USA) according to the two-step protocol described previously. The expressions of ABCB1, ABCC1, and ABCG2 genes were measured by qRT-PCR using specific TaqMan assays with QuantStudio 6 machine (Life Technologies, Carlsbad, CA, USA). qRT-PCR reactions were run under predefined thermal cycling conditions (95 °C for 10 min, then 40 repeats of a cycle of 95 °C for 15 s and 60 °C for 60 s). GAPDH and B2M were used as house-keeping genes; the fold-changes in target genes’ expressions were determined according to the 2^-ΔΔCt method."}, "[5]": {"test_system": "ABCC1 mRNA", "experiment": "Gene induction study (qRT-PCR) in MCF-7 cells", "type": "cell-based, Human", "conditions": "0.5 µM, 24 and 48 h", "description": "as §3"}, "[6]": {"test_system": "ABCG2 mRNA", "experiment": "Gene induction study (qRT-PCR) in MCF-7 cells", "type": "cell-based, Human", "conditions": "0.5 µM, 24 and 48 h", "description": "as §3"}, "[7]": {"biological_target": "ABCC1 (Homo sapiens, UniProt P33527)", "sequence (P33527 whole entry)": "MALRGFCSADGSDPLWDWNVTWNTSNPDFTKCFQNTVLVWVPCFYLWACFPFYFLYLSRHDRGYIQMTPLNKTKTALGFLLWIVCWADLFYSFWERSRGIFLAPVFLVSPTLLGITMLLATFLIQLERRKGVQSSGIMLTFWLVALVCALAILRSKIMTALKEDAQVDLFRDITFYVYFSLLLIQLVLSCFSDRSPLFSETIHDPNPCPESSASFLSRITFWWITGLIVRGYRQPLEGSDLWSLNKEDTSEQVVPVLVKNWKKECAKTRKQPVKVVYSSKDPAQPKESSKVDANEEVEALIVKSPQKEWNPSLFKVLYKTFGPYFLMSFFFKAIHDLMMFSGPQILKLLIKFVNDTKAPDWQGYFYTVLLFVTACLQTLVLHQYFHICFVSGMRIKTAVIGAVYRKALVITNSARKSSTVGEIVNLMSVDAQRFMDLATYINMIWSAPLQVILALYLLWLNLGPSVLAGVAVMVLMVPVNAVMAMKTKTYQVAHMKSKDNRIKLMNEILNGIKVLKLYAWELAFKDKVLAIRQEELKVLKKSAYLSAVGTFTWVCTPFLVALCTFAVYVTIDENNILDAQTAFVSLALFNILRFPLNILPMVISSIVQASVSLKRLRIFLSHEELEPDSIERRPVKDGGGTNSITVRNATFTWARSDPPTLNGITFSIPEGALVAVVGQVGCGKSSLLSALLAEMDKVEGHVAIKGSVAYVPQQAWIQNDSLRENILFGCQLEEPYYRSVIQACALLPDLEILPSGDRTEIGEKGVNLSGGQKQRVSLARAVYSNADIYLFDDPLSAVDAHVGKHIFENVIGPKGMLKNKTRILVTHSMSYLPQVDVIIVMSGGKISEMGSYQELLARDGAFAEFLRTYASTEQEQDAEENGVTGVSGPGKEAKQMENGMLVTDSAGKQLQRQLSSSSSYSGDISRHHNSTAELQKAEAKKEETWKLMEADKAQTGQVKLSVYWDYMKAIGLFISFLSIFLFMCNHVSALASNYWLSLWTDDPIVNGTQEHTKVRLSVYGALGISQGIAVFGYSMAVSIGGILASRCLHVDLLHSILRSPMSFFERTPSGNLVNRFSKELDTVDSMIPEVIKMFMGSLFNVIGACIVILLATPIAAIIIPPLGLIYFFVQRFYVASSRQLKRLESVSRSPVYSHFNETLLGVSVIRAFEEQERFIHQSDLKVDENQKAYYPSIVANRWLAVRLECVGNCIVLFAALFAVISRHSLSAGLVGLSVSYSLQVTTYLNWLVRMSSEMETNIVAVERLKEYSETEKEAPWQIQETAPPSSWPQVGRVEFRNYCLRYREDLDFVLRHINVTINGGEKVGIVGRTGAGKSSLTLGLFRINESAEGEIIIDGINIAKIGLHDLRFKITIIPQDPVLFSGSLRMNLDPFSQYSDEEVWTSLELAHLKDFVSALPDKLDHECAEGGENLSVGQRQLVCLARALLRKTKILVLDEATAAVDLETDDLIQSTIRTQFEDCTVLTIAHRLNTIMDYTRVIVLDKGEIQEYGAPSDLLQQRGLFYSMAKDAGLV", "experiment": "Accumulation assay with daunorubicin in MDCKII-ABCC1 cells", "type": "cell-based", "design": "expressed in transfected cells; host or cells: MDCKII (canine kidney) subline MDCKII-ABCC1, gift of Dr. Alfred Schinkel", "conditions": "read-out: ABCC1 inhibition IC50", "description": "The conduction of accumulation assays followed the slightly changed protocol described previously. In the study, MDCKII-par, MDCKII-ABCB1, MDCKII-ABCC1, MDCKII-ABCG2, and primary explants were seeded into 12-well plates in variant densities, 22.0 × 10^4, 15.0 × 10^4, 25.0 × 10^4, 22.0 × 10^4, and 15.0 × 10^4 cells/well, respectively. After 24 h incubation, two washing steps with 1 × PBS were applied. […] The cells were then incubated under standard conditions for 30 min. Next steps included placing the plates on ice, washing the cells with ice-cold 1 × PBS two-times, and detaching the cells with the ice-cold 10 × trypsin without phenol red. Following trypsinization, cells were resuspended in 1 × PBS containing 2% FBS. Subsequently, cell suspensions were transferred into the test tubes and kept on ice. The fluorescence in cells was measured immediately after the collection of their suspensions using flow cytometer Sony SA3800 Spectral Cell Analyzer (Sony Biotechnology, San Jose, CA, USA). SA3800 software (Sony Biotechnology, San Jose, CA, USA) was used to evaluate the data."}},
  "data": [
    {"smiles": "Cn1ncnc1[C@H]1c2n[nH]c(=O)c3cc(F)cc(c23)N[C@@H]1c1ccc(F)cc1", "note": "[talazoparib, Talazoparib]", "values": [
      {"measurement": "IC50 at 48 h", "setting": "[1]", "result": 64.5, "unit": "µM"},
      {"measurement": "IC50", "setting": "[2]", "result": 66, "unit": "µM"},
      {"measurement": "IC50", "setting": "[3]", "result": 69.4, "unit": "µM"},
      {"measurement": "change of ABCB1 mRNA expression vs vehicle control", "setting": "[4]", "result": "did not trigger the transporters’ expression increase or decrease by more than 100% or 50%"},
      {"measurement": "change of ABCC1 mRNA expression vs vehicle control", "setting": "[5]", "result": "did not trigger the transporters’ expression increase or decrease by more than 100% or 50%"},
      {"measurement": "change of ABCG2 mRNA expression vs vehicle control", "setting": "[6]", "result": "did not trigger the transporters’ expression increase or decrease by more than 100% or 50%"},
      {"measurement": "IC50", "setting": "[7]", "result": 5.62, "unit": "µM"}
    ]}
  ]
}
